Laboratory results as given in patent US6706740B2, “Fungicidal heterocyclic aromatic amides and their compositions, methods of use and preparation” (Dow AgroSciences LLC, priority 1999, dated 2004).

What follows are compounds tested on Stagonospora nodorum (Leptosphaeria nodorum—LEPTNO) (assay: In vitro fungal growth inhibition, Stagonospora nodorum (LEPTNO)). Settings: Leptosphaeria; 25 ppm in growth medium; read-out: LEPTNO in vitro Growth Inhibition.
Assay type: cell-based

Which inhibition at 25 ppm does the source give for `COc1ccnc(C(=O)NCCCCCCCCCCC(=O)OCCSc2ccccc2)c1O` [Compound 362] here?
Its inhibition at 25 ppm is under 80%.

Which inhibition at 25 ppm does the source give for `COc1ccnc(C(=O)NC(CC2CCCCC2)C(=O)OC2CCNC2)c1O` (stereo not drawn) [Compound 369] here?
The inhibition at 25 ppm was under 80%.

Which inhibition at 25 ppm does the source give for `COc1ccnc(C(=O)NC(CC(N)=O)C(=O)OC/C=C(/C)CCC=C(C)C)c1O` (stereo not drawn) [Compound 373] here?
The inhibition at 25 ppm was under 80%.

For `COc1ccnc(C(=O)NCCCCC(=O)Oc2cccc(NC(C)=O)c2)c1O` [Compound 367], which inhibition at 25 ppm is on record?
The inhibition at 25 ppm was under 80%.

Which inhibition at 25 ppm does the source give for `COc1ccnc(C(=O)N[C@H]2COC(=O)[C@H](Cc3ccccc3)[C@@H](OC(=O)C(C)C)[C@H](C)OC2=O)c1OC(=O)c1snnc1C` [Compound 676] here?
The inhibition at 25 ppm was over 80%.

With `COc1ccnc(C(=O)NCCCCCCCCCCCC(=O)Oc2cccc(NC(C)=O)c2)c1O` [Compound 365] as the compound, how does the inhibition at 25 ppm read?
Its inhibition at 25 ppm is under 80%.

How did the inhibition at 25 ppm turn out when `COc1ccnc(C(=O)N[C@H]2COC(=O)[C@H](Cc3ccccc3)[C@@H](OC(=O)C(C)C)[C@H](C)OC2=O)c1OC(=O)c1ccc(OC(Cl)(Cl)Cl)cc1` [Compound 635] was run?
The inhibition at 25 ppm was over 80%.

Each compound was assayed on Mycosphaerella graminicola (Septoria tritici—SEPTTR) (assay: In vitro fungal growth inhibition, Mycosphaerella graminicola (SEPTTR)). Settings: Zymoseptoria tritici; 25 ppm in growth medium; read-out: SEPTTR in vitro Growth Inhibition.
Assay type: cell-based

How did the inhibition at 25 ppm turn out when `COc1ccnc(C(=O)NCCCCCCCCCCC(=O)OCCSc2ccccc2)c1O` [Compound 362] was run?
The inhibition at 25 ppm was under 80%.

`COc1ccnc(C(=O)NC(CC2CCCCC2)C(=O)OC2CCNC2)c1O` (stereo not drawn) [Compound 369] was tested. Which inhibition at 25 ppm did it give?
The inhibition at 25 ppm was under 80%.

With `COc1ccnc(C(=O)NC(CC(N)=O)C(=O)OC/C=C(/C)CCC=C(C)C)c1O` (stereo not drawn) [Compound 373] as the compound, how does the inhibition at 25 ppm read?
The inhibition at 25 ppm was under 80%.

`COc1ccnc(C(=O)NCCCCC(=O)Oc2cccc(NC(C)=O)c2)c1O` [Compound 367] was tested. Which inhibition at 25 ppm did it give?
Its inhibition at 25 ppm is under 80%.

How did the inhibition at 25 ppm turn out when `COc1ccnc(C(=O)N[C@H]2COC(=O)[C@H](Cc3ccccc3)[C@@H](OC(=O)C(C)C)[C@H](C)OC2=O)c1OC(=O)c1snnc1C` [Compound 676] was run?
The inhibition at 25 ppm was under 80%.

How did the inhibition at 25 ppm turn out when `COc1ccnc(C(=O)NCCCCCCCCCCCC(=O)Oc2cccc(NC(C)=O)c2)c1O` [Compound 365] was run?
Its inhibition at 25 ppm is under 80%.

With `COc1ccnc(C(=O)N[C@H]2COC(=O)[C@H](Cc3ccccc3)[C@@H](OC(=O)C(C)C)[C@H](C)OC2=O)c1OC(=O)c1ccc(OC(Cl)(Cl)Cl)cc1` [Compound 635] as the compound, how does the inhibition at 25 ppm read?
The inhibition at 25 ppm was under 80%.

What follows are compounds tested on Rhizoctonia solani (RHIZSO) (assay: microbe, parasite or virus in culture). Settings: Rhizoctonia solani, read-out: RHIZSO in vitro Growth Inhibition.
Assay type: cell-based

With `COc1ccnc(C(=O)NCCCCCCCCCCC(=O)OCCSc2ccccc2)c1O` [Compound 362] as the compound, how does the inhibition at 25 ppm read?
The inhibition at 25 ppm was under 80%.

How did the inhibition at 25 ppm turn out when `COc1ccnc(C(=O)NC(CC2CCCCC2)C(=O)OC2CCNC2)c1O` (stereo not drawn) [Compound 369] was run?
Its inhibition at 25 ppm is over 80%.

For `COc1ccnc(C(=O)NC(CC(N)=O)C(=O)OC/C=C(/C)CCC=C(C)C)c1O` (stereo not drawn) [Compound 373], which inhibition at 25 ppm is on record?
Its inhibition at 25 ppm is over 80%.

Which inhibition at 25 ppm does the source give for `COc1ccnc(C(=O)NCCCCC(=O)Oc2cccc(NC(C)=O)c2)c1O` [Compound 367] here?
Its inhibition at 25 ppm is under 80%.

Which inhibition at 25 ppm does the source give for `COc1ccnc(C(=O)N[C@H]2COC(=O)[C@H](Cc3ccccc3)[C@@H](OC(=O)C(C)C)[C@H](C)OC2=O)c1OC(=O)c1snnc1C` [Compound 676] here?
The inhibition at 25 ppm was under 80%.

How did the inhibition at 25 ppm turn out when `COc1ccnc(C(=O)NCCCCCCCCCCCC(=O)Oc2cccc(NC(C)=O)c2)c1O` [Compound 365] was run?
Its inhibition at 25 ppm is under 80%.

Which inhibition at 25 ppm does the source give for `COc1ccnc(C(=O)N[C@H]2COC(=O)[C@H](Cc3ccccc3)[C@@H](OC(=O)C(C)C)[C@H](C)OC2=O)c1OC(=O)c1ccc(OC(Cl)(Cl)Cl)cc1` [Compound 635] here?
The inhibition at 25 ppm was under 80%.

The compounds below were run on Phytophthora infestans (PHYTIN) (assay: microbe, parasite or virus in culture). Settings: Phytophthora infestans, read-out: PHYTIN in vitro Growth Inhibition.
Assay type: cell-based

Which inhibition at 25 ppm does the source give for `COc1ccnc(C(=O)NCCCCCCCCCCC(=O)OCCSc2ccccc2)c1O` [Compound 362] here?
Its inhibition at 25 ppm is under 80%.

With `COc1ccnc(C(=O)NC(CC2CCCCC2)C(=O)OC2CCNC2)c1O` (stereo not drawn) [Compound 369] as the compound, how does the inhibition at 25 ppm read?
Its inhibition at 25 ppm is under 80%.

How did the inhibition at 25 ppm turn out when `COc1ccnc(C(=O)NC(CC(N)=O)C(=O)OC/C=C(/C)CCC=C(C)C)c1O` (stereo not drawn) [Compound 373] was run?
Its inhibition at 25 ppm is under 80%.

How did the inhibition at 25 ppm turn out when `COc1ccnc(C(=O)NCCCCC(=O)Oc2cccc(NC(C)=O)c2)c1O` [Compound 367] was run?
Its inhibition at 25 ppm is under 80%.

With `COc1ccnc(C(=O)N[C@H]2COC(=O)[C@H](Cc3ccccc3)[C@@H](OC(=O)C(C)C)[C@H](C)OC2=O)c1OC(=O)c1snnc1C` [Compound 676] as the compound, how does the inhibition at 25 ppm read?
Its inhibition at 25 ppm is under 80%.

How did the inhibition at 25 ppm turn out when `COc1ccnc(C(=O)NCCCCCCCCCCCC(=O)Oc2cccc(NC(C)=O)c2)c1O` [Compound 365] was run?
Its inhibition at 25 ppm is under 80%.

For `COc1ccnc(C(=O)N[C@H]2COC(=O)[C@H](Cc3ccccc3)[C@@H](OC(=O)C(C)C)[C@H](C)OC2=O)c1OC(=O)c1ccc(OC(Cl)(Cl)Cl)cc1` [Compound 635], which inhibition at 25 ppm is on record?
Its inhibition at 25 ppm is under 80%.

What follows are compounds tested on Ustilago maydis (USTIMA) (assay: microbe, parasite or virus in culture). Settings: Mycosarcoma maydis, read-out: USTIMA in vitro Growth Inhibition.
Assay type: cell-based

For `COc1ccnc(C(=O)NCCCCCCCCCCC(=O)OCCSc2ccccc2)c1O` [Compound 362], which inhibition at 25 ppm is on record?
The inhibition at 25 ppm was under 80%.

For `COc1ccnc(C(=O)NC(CC2CCCCC2)C(=O)OC2CCNC2)c1O` (stereo not drawn) [Compound 369], which inhibition at 25 ppm is on record?
The inhibition at 25 ppm was under 80%.

`COc1ccnc(C(=O)NC(CC(N)=O)C(=O)OC/C=C(/C)CCC=C(C)C)c1O` (stereo not drawn) [Compound 373] was tested. Which inhibition at 25 ppm did it give?
The inhibition at 25 ppm was under 80%.

With `COc1ccnc(C(=O)NCCCCC(=O)Oc2cccc(NC(C)=O)c2)c1O` [Compound 367] as the compound, how does the inhibition at 25 ppm read?
The inhibition at 25 ppm was under 80%.

Which inhibition at 25 ppm does the source give for `COc1ccnc(C(=O)N[C@H]2COC(=O)[C@H](Cc3ccccc3)[C@@H](OC(=O)C(C)C)[C@H](C)OC2=O)c1OC(=O)c1snnc1C` [Compound 676] here?
The inhibition at 25 ppm was under 80%.

How did the inhibition at 25 ppm turn out when `COc1ccnc(C(=O)NCCCCCCCCCCCC(=O)Oc2cccc(NC(C)=O)c2)c1O` [Compound 365] was run?
The inhibition at 25 ppm was under 80%.

With `COc1ccnc(C(=O)N[C@H]2COC(=O)[C@H](Cc3ccccc3)[C@@H](OC(=O)C(C)C)[C@H](C)OC2=O)c1OC(=O)c1ccc(OC(Cl)(Cl)Cl)cc1` [Compound 635] as the compound, how does the inhibition at 25 ppm read?
The inhibition at 25 ppm was under 80%.

What follows are compounds tested on Magnaporthe grisea (Pyricularia oryzae—PYRIOR) (assay: microbe, parasite or virus in culture). Settings: Pyricularia oryzae, read-out: PYRIOR in vitro Growth Inhibition.
Assay type: cell-based

Which inhibition at 25 ppm does the source give for `COc1ccnc(C(=O)NCCCCCCCCCCC(=O)OCCSc2ccccc2)c1O` [Compound 362] here?
Its inhibition at 25 ppm is over 80%.

With `COc1ccnc(C(=O)NC(CC2CCCCC2)C(=O)OC2CCNC2)c1O` (stereo not drawn) [Compound 369] as the compound, how does the inhibition at 25 ppm read?
Its inhibition at 25 ppm is under 80%.

With `COc1ccnc(C(=O)NC(CC(N)=O)C(=O)OC/C=C(/C)CCC=C(C)C)c1O` (stereo not drawn) [Compound 373] as the compound, how does the inhibition at 25 ppm read?
Its inhibition at 25 ppm is under 80%.

Which inhibition at 25 ppm does the source give for `COc1ccnc(C(=O)NCCCCC(=O)Oc2cccc(NC(C)=O)c2)c1O` [Compound 367] here?
The inhibition at 25 ppm was over 80%.

Which inhibition at 25 ppm does the source give for `COc1ccnc(C(=O)N[C@H]2COC(=O)[C@H](Cc3ccccc3)[C@@H](OC(=O)C(C)C)[C@H](C)OC2=O)c1OC(=O)c1snnc1C` [Compound 676] here?
Its inhibition at 25 ppm is under 80%.

Which inhibition at 25 ppm does the source give for `COc1ccnc(C(=O)NCCCCCCCCCCCC(=O)Oc2cccc(NC(C)=O)c2)c1O` [Compound 365] here?
The inhibition at 25 ppm was over 80%.

`COc1ccnc(C(=O)N[C@H]2COC(=O)[C@H](Cc3ccccc3)[C@@H](OC(=O)C(C)C)[C@H](C)OC2=O)c1OC(=O)c1ccc(OC(Cl)(Cl)Cl)cc1` [Compound 635] was tested. Which inhibition at 25 ppm did it give?
The inhibition at 25 ppm was under 80%.
